Literature values as cited in patent US20230172920A1, “DOSING REGIMEN FOR TREATING A DISEASE MODULATED BY CSF-1R” (Novartis AG, priority 2020, published 2023).
Read-outs that look alike come from different tables or passages of the source.

B1: MCS110: monoclonal antibody against CSF-1 ligand (antibody, chains of the INN, looked up, V domains shown)
VH: QVQLQESGPGLVKPSQTLSLTCTVSDYSITSDYAWNWIRQFPGKGLEWMGYISYSGSTSYNPSLKSRITISRDTSKNQFSLQLNSVTAADTAVYYCASFDYAHAMDYWGQGTTVTVSS
VL: DIVLTQSPAFLSVTPGEKVTFTCQASQSIGTSIHWYQQKTDQAPKLLIKYASESISGIPSRFSGSGSGTDFTLTISSVEAEDAADYYCQQINSWPTTFGGGTKLEIK

Key:
[1] = cited from earlier work
[2] = Phase 2b/3 clinical trial; cited from earlier work

Molecule | serum enzyme increases in clinical trials ([1]; human, in vivo) | other results
FC(F)(F)c1ccc(CNc2ccc(Cc3c[nH]c4ncc(Cl)cc34)cn2)cn1 [PLX3397, reference compound] |  | serum enzyme increases in clinical trials ([1]; literature reports): Asymptomatic serum enzyme increases
Cc1ccc(NC(=O)c2ccc(CN3CCN(C)CC3)cc2)cc1Nc1nc(-c2cccnc2)cs1 [masitinib] |  | disease progression in patients with ALS [2]: significant delay of disease progression
FPA008: monoclonal antibody against CSF-1R | Asymptomatic serum enzyme increases | 
B1 | Asymptomatic serum enzyme increases | 
